{"source": "patent US8226944B2", "about": "“Composition for treating virus infection disease comprising Jab1” (priority 2004, dated 2012)", "key": {"WNV-Cp [1]": {"tested_on": "WNV-Cp", "test": "Western blotting of WNV-Cp protein levels in transfected 293T cells", "assay_type": "cell-based", "description": "293T cells were plated onto 60-mm plates at a density of 3×10^5 cells, cultured, and transfected with pcDAN3-HA/WNV-Cp alone, and pcDAN3-HA/WNV-Cp and pCMV-tag2B-Jab1 together using an Effectene transfection reagent (Qiagen). In the case of the co-transfection, to equalize the levels of expressed DNA, 12 hrs after transfection, cells were divided into two plates by pipetting. 20 hrs after transfection, the cells were treated for 4 hrs with 20 μM/ml of the proteasome inhibitor LLnL (N-acetyl-L-luecinyl-norleucinal, Sigma). Then, the cells were washed with 1×PBS and collected. Samples of 50 μg protein were loaded onto a SDS-PAGE gel and analyzed by Western blotting using an anti-HA antibody (Santa Cruz) for the detection of WNV-Cp expression and an anti-Flag M2 antibody (Sigma) for the detection of Jab1 expression. Actin was used as a loading control."}, "[2]": {"tested_on": "SH-SY5Y cells expressing WNV-Cp", "test": "Annexin V-PE staining / FACS apoptosis rate in cells transfected with WNV-Cp gene", "assay_type": "cell-based, human", "conditions": "200 nM inhibitor added after 6 hrs, measured after 24 hrs, untreated WNV-Cp cells 69.6%", "from_the_text": "Human neuroblastoma SH-SY5Y cells were transfected with a WNV-Cp gene. To determine an apoptosis rate in cells expressing the capsid protein of WNV, the cells were stained with annexin V-PE and subjected to FACS analysis (BioRAD, Win BRYTE). As a result, the cells were fractionated into four fractions: A, B, C and D. The A fraction indicates a cell population that was not injected with the WNV-Cp gene and stained with annexin V-PE.\nSeparately, SH-SY5Y cells were transfected with a WNV-Cp gene. After 6 hrs, the cells were treated with 200 nM of a PI3K inhibitor, wortmanin (Sigma), and 5 μM and 50 μM of an Akt inhibitor, calbiochem (CN Biosciences). After 24 hrs, the cells were stained with annexin V-PE that is capable of detecting a step of apoptosis and subjected to FACS analysis (BioRAD, WinBryte) for measuring an apoptosis rate. […] The transfected cells were analyzed on a FL3 channel (green fluorescence) and annexin V-PE binding was analyzed on a FL2 channel. An apoptosis rate in capsid-expressing cells was calculated according to Reaction 1, below. Cells transfected with a pEGFP-N1 plasmid were used as a negative control, and cells transfected with a C2-Cp plasmid and not treated with the inhibitor were used as a positive control. [Annexin V-PE-positive cells/(all cells expressing C2−Cp)]×100 [Reaction 1]"}, "WNV-Cp [3]": {"target": "T1, WNV-Cp (West Nile virus, UniProt Q9Q6P4)", "T1 construct": "capsid (Cp) protein of West Nile virus (WNV); expressed in transfected cells; host or cells: 293T", "T1 sequence (Q9Q6P4 2-105 limits assumed)": "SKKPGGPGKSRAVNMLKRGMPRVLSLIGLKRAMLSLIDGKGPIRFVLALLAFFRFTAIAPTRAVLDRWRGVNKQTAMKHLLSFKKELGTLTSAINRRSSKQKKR", "test": "Immunoprecipitation of Jab1 with WNV-Cp in cotransfected 293T cells", "assay_type": "binding", "conditions": "293T cells cotransfected with Flag-Jab1 and HA-WNV-Cp, IP with anti-HA antibody", "description": "Separately, immunoprecipitation (IP) was performed to confirm the interaction between WNV-Cp and Jab1. 293T cells were cotransfected with Flag-Jab1 and HA-WNV-Cp plasmids, and the whole cell lysates were immunoprecipitated with an anti-HA mouse antibody. As a control, IP was carried out with an anti-Myc antibody. Immunoprecipited proteins were run on a 12% SDS-PAGE gel, transferred to a nitrocellulose membrane, and detected with an anti-Flag mouse antibody to visualize immunoprecipitated Jab1 along with WNV-Cp (FIG. 7)."}, "WNV-Cp [4]": {"tested_on": "WNV-Cp", "test": "Immunofluorescence (confocal) localisation of WNV-Cp in cotransfected 293T, U2OS and HeLa cells", "assay_type": "cell-based, West Nile virus", "conditions": "U2OS and HeLa cells cotransfected with WNV-Cp and Jab1, 24 hrs", "from_the_text": "To evaluate the effect of Jab1, identified to interact with WNV-Cp, on the intracellular location of WNV-cp, 293T, U2OS and HeLa cells were cotransfected with the WNV-Cp protein and Jab1. 293T, U2OS and HeLa cells were cotransfected with HA-tagged pcDNA-HA/WNV-Cp and Flag-tagged pCMV Tag2B-Jab1. After 24 hrs, the cells were stained using an anti-HA antibody (green) and an anti-Flag antibody (red) and observed under a confocal microscope."}, "p53": {"tested_on": "p53", "sequence (P04637 whole entry)": "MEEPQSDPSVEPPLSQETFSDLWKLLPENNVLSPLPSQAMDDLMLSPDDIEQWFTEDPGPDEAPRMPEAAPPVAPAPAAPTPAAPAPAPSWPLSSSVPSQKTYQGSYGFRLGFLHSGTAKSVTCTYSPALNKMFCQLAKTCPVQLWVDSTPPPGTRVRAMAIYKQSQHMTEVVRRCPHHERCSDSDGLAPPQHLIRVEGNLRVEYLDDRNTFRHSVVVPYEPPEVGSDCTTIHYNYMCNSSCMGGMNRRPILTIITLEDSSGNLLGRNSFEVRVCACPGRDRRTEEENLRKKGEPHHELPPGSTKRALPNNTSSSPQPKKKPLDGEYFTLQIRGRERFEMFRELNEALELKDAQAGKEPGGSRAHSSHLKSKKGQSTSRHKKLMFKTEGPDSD", "test": "Western blotting of endogenous p53 expression in transfected U2OS cells", "assay_type": "cell-based, human", "conditions": "U2OS cells transfected with 1, 3 and 5 μg Flag construct, 48 hrs", "description": "U2OS cells were transfected with Flag/mdm2 (control) and Flag/Jab1 with various concentrations of 1, 3 and 5 μg using a Lipofectamin/plus reagent (Invitrogen). After 48 hrs, cell lysates were collected, and total protein concentrations were measured by a BSA (PIERCE) method. Samples of 100 μg/ml protein were separated on a 10% SDS-PAGE gel and transferred to a nitrocellulose membrane. The blot was blocked with 5% skim milk for 30 min, and treated with a rabbit anti-HA antibody (Santa Cruz) and a mouse anti-Flag antibody (Sigma) to examine expression levels of p53 according to increased expression of mdm2 and Jab1."}, "caspase-3 and caspase-9": {"tested_on": "caspase-3 and caspase-9", "test": "Caspase activity assay (colorimetric) in transfected 293T cells", "assay_type": "cell-based, human", "conditions": "293T cells co-expressing WNV-Cp and Jab1 versus WNV-Cp alone, 24 hrs after transfection", "description": "293T cells were plated onto 60-mm plates at a density of 3×10^5 cells, cultured, and transfected with pcDNA3-HA, pcDNA3-HA/Cp, pCMV-tag2B-Jab1, both pcDNA3-HA/Cp and pCMV-tag2B-Jab1, and pcDNA3-Bax, respectively. After 24 hrs, the cells were washed with 1×PBS twice, transferred to 1.5-ml tubes, and lysed with 20 μl of buffer C (25% glycerol, 0.42 M NaCl, 1.5 M MgCl2, 0.2 mM EDTA, 20 mM HEPES, 1 mM DTT, 0.5 mM PMSF, pH7.9). After being incubated for 10 min on ice, the lysed cells were centrifuged. The total protein concentration in each supernatant was measured, and samples of zero to 300 μg of proteins were placed into a 96-well plate. To the 96-well plate, 50 μl of 2× reaction buffer and 5 μl of 4 mM DNA-conjugated substrate, provided in a caspase colorimetric substrate set II plus kit (Biovision), were added. After a 1-hr incubation at 37° C., the activity of caspase-3 and caspase-9 was measured at 410 nm using a microtiter plate reader. The results are given in the A panel of FIG. 8. In cells expressing WNV-Cp, the activity of capase-3 and caspase-9 was similar to that in cells expressing Bax, a member of the pro-apoptotic Bcl-2 family. […] The expression of the proteins used in this caspase activity assay was detected by Western blotting, and the results are given in the B panel of FIG. 8."}}, "note": "Square brackets hold non-standard residues; d marks the D form. Peptide text beside a SMILES is read from it. Nle = CCCC[C@H](N)C(=O)O", "data": [{"molecule": "CCCC[C@@H](C=O)NC(=O)[C@H](CC(C)C)NC(=O)[C@H](CC(C)C)NC(C)=O", "note": "[LLnL, N-acetyl-L-luecinyl-norleucinal, reference compound] (Ac-Leu-Leu-[Nle]-aldehyde)", "values": [{"measurement": "protein levels of WNV-Cp", "setting": "WNV-Cp [1]; 293T cells cotransfected with WNV-Cp and Jab1, treated for 4 hrs with 20 μM/ml LLnL", "result": "increased"}]}, {"molecule": "COC[C@H]1OC(=O)c2coc3c2[C@@]1(C)C1=C(C3=O)[C@@H]2CCC(=O)[C@@]2(C)C[C@H]1OC(C)=O", "note": "[wortmanin]", "values": [{"measurement": "apoptosis rate", "setting": "[2]", "result": 22.8, "unit": "%"}]}, {"molecule": "Jab1: Jun-activation binding protein 1, expressed in cells from plasmid pCMV-tag2B-Jab1 (Flag-tagged); amino acid sequence SEQ ID No. 2", "values": [{"measurement": "protein levels of WNV-Cp", "setting": "WNV-Cp [1]; 293T cells, co-expression with Jab1 compared to single expression of WNV-Cp", "result": "large decrease"}, {"measurement": "interaction with WNV-Cp (co-immunoprecipitation)", "setting": "WNV-Cp [3]", "result": "co-immunoprecipitated with WNV-Cp"}, {"measurement": "intracellular location of WNV-Cp", "setting": "WNV-Cp [4]", "result": "appeared in the cytoplasm"}, {"measurement": "expression of p53", "setting": "p53", "result": "remarkably decreased"}, {"measurement": "caspase activity (caspase-3 and caspase-9)", "setting": "caspase-3 and caspase-9", "result": "remarkably reduced"}]}]}
